Assay results: patent US20140193827A1 (TEVA PHARMACEUTICAL INDUSTRIES, LTD., priority 2013, published 2014)

Tested on: GA-primed murine splenocytes
Assay: ANOVA-based pattern identification method
Assay type: cell-based, mouse
Details: UP IN generic ONLY
Description: We sought to identify probes matching specific patterns of expression across experimental conditions using a technique that referred to as the ANOVA-based Pattern Identification Method.
To carry out the analysis in a general manner, we computed the 6 p-values required to do pairwise comparisons of all 4 conditions for all probes using the ANOVA1 function in MATLAB. We then identified sets of probes matching the desired pattern. In the example above, probes were identified as being only affected by PG if their 6 pairwise comparison pvalues matched the following pattern (pGA-PG<0.05, pPG-reference standard<0.05, pPG-Medium<0.05, pGAMedium>0.05, pGA-reference standard>0.05, preference standard-Medium>0.05).

Substance: glatiramer acetate [GA]
- LOC380723 expression: 5.812
- LOC382813 expression: 5.786
- LOC383439 expression: 5.708
- LOC385989 expression: 5.996
- LOC546088 expression: 5.782
- LOC677528 expression: 9.498
- LOC100045460 expression: 5.645
- LOC100046781 expression: 6.089
- LOC100047194 expression: 5.921
- LOC100047603 expression: 6.184
- LOC100048331 expression: 5.894
- LY96 expression: 7.768
- LYSMD4 expression: 6.812
- MAGEA9 expression: 5.817
- MAGEE2 expression: 5.808
- MAK10 expression: 9.516
- MAPKAPK2 expression: 10.02
- MCPT6 expression: 5.782
- MFSD7A expression: 5.961
- MKNK1 expression: 6.113
- MLANA expression: 5.769
- MOCO5 expression: 6.424
- MS4A7 expression: 6.506
- MTAP1S expression: 8.992
- MTRR expression: 6.473
- NAPA expression: 7.994
- NAPRT1 expression: 6.46
- NCDN expression: 8.408
- NEK4 expression: 5.969
- NFE2L1 expression: 9.753
- NFKB1 expression: 11.57
- NRXN1 expression: 5.957
- NSF expression: 9.95
- OLFR228 expression: 5.655
- OLFR312 expression: 5.726
- OLFR506 expression: 5.636
- OLFR519 expression: 5.669
- OLFR907 expression: 5.644
- OLFR1155 expression: 5.789
- PALLD expression: 5.641
- PALM expression: 6.421
- PCBD2 expression: 10.32
- PCDHAC1 expression: 5.69
- PCOLN3 expression: 7.171
- PDGFB expression: 6.243
- PEF1 expression: 9.307
- PKIA expression: 6.356
- PKIB expression: 5.803
- PLD1 expression: 5.927
- PRDX2 expression: 11.61
- PRPF3 expression: 10.04
- PSCD2 expression: 6.134
- PSG22 expression: 5.693
- PTPRF expression: 5.709
- R74862 expression: 6.215
- RALGPS2 expression: 8.862
- RASAL2 expression: 6.006
- RBPMS expression: 6.068
- REXO1 expression: 6.854
- RHOF expression: 9.948
- RHOT1 expression: 9.777
- RNF40 expression: 6.148
- RNF183 expression: 5.994
- RPUSD3 expression: 6.756
- RSC1A1 expression: 7.697
- SAMD10 expression: 6.984
- SARDH expression: 5.837
- SCAVENGER RECEPTOR expression: 6.161
- SCN1B expression: 5.97
- SFRS2IP expression: 9.233
- SGSM3 expression: 7.217
- SLC7A8 expression: 6.268
- SLC13A5 expression: 5.704
- SLC22A21 expression: 5.775
- SLC26A6 expression: 6.454
- SMG7 expression: 9.655
- SNCA expression: 5.875
- SOX7 expression: 6.163
- SPEN expression: 6.891
- SPIN2 expression: 6.355
- SYMPK expression: 8.402
- SYN1 expression: 5.985
- TAF3 expression: 7.199
- TCEAL5 expression: 5.768
- TCF7L2 expression: 5.717
- TFIP11 expression: 8.095
- TFRC expression: 9.789
- TG737RPW expression: 6.301
- THOC1 expression: 8.813
- TJAP1 expression: 8.168
- TMEM43 expression: 9.133
- TNXB expression: 5.703
- TRABD expression: 8.509
- TRIM2 expression: 5.778
- TRIM15 expression: 5.62
- TRPV4 expression: 5.895
- TRUB1 expression: 8.23
- TSNAXIP1 expression: 5.811
- TTC4 expression: 8.309
- TTC15 expression: 7.191
- UACA expression: 6.1
- UAP1 expression: 8.168
- UBE2A expression: 7.652
- UBE2E2 expression: 6.42
- UGP2 expression: 7.767
- USP10 expression: 6.432
- USP36 expression: 8.5
- V1RC23 expression: 5.692
- VGLL2 expression: 5.853
- WIZ expression: 7.206
- WNK2 expression: 5.719
- XPO5 expression: 7.592
- ZBTB6 expression: 6.029
- ZEB2 expression: 5.602
- ZFP162 expression: 7.652
- ZFP239 expression: 7.228
- ZFP563 expression: 5.809
- ZFP748 expression: 5.815
- ZMAT3 expression: 7.615
- ZMIZ1 expression: 7.099
- control_ILMN_1378661 expression: 5.718
- control_ILMN_1378677 expression: 5.994
- control_ILMN_1378911 expression: 5.7
- AMBRA1 expression (first AMBRA1 line (r790)): 5.749
- CAMK1 expression (first CAMK1 line (r746)): 6.416
- AMBRA1 expression (second AMBRA1 line (r797)): 8.755
- CAMK1 expression (second CAMK1 line (r762)): 5.514
